Experimental data taken from patent US12528801B2 (Givaudan SA, priority 2019, dated 2026).

Biological target: T1, hTRPM8 (Homo sapiens, UniProt Q7Z2W7)
T1 construct: expressed in transfected cells
Assay: Assay on TRPM8 modulators: calcium imaging (Fluo-4, Flexstation) in HEK293 cell line stably expressing hTRPM8
Assay type: cell-based
Settings: HEK293 cells stably expressing hTRPM8; calcium influx, Fluo-4, Flexstation 3; sigmoidal dose-response fit
Description: A HEK293 cell line stably expressing hTRPM8 was generated according to Klein of at, (Chem. Senses 36: […], 2011) and receptor activation was monitored by calcium imaging in a Flexstation. For Ca-imaging assays of TRPM8 channel activation, cells were seeded on day 0 at a density of 12000 cells per well in Dulbecco's modified Eagle medium (DMEM) containing 9% foetal bovine serum in black, clear bottom 96-well plates that had been coated with 0.001% polyethyleneimine (molecular weight=60 000, Acros Organics). On day 2, agonists were evaluated via calcium imaging using Fluo-4. Briefly, growth medium was discarded, and the cells were incubated in the dark for 1 h at 37° C. in 50 μL loading buffer consisting of 2.7 μM Fluo-4 AM (Invitrogen) and […] probenecid (Sigma-Aldrich) in DMEM (without serum). After incubation, the plates were washed five times with 100 μL of assay buffer (in mM: 130 NaCl, 5 KCl, 10 HEPES, 2 CaCl2, and 10 glucose, pH7.4.) and further incubated in the dark at room temperature for 30 min. The cells were then washed five times with 100 μL assay buffer and then calcium influx to serial dilutions of inventive compounds were measured in a Flexstation 3 (Molecular Devices). Receptor activation was initiated following addition of 20 μl of a 10-fold concentrated ligand stock solution, which is also prepared in assay buffer. Fluorescence was continuously monitored for 15 seconds prior to ligand addition and for 105 seconds after ligand addition, for a total of 120 seconds. Maximal receptor activation in relation to solvent control and relative to 31.6 μM menthol is determined. Data from serial dilutions were processed with a KNIME workflow to fit a sigmoidal dose-response curve and to extrapolate […].

T1 sequence (Q7Z2W7 whole entry): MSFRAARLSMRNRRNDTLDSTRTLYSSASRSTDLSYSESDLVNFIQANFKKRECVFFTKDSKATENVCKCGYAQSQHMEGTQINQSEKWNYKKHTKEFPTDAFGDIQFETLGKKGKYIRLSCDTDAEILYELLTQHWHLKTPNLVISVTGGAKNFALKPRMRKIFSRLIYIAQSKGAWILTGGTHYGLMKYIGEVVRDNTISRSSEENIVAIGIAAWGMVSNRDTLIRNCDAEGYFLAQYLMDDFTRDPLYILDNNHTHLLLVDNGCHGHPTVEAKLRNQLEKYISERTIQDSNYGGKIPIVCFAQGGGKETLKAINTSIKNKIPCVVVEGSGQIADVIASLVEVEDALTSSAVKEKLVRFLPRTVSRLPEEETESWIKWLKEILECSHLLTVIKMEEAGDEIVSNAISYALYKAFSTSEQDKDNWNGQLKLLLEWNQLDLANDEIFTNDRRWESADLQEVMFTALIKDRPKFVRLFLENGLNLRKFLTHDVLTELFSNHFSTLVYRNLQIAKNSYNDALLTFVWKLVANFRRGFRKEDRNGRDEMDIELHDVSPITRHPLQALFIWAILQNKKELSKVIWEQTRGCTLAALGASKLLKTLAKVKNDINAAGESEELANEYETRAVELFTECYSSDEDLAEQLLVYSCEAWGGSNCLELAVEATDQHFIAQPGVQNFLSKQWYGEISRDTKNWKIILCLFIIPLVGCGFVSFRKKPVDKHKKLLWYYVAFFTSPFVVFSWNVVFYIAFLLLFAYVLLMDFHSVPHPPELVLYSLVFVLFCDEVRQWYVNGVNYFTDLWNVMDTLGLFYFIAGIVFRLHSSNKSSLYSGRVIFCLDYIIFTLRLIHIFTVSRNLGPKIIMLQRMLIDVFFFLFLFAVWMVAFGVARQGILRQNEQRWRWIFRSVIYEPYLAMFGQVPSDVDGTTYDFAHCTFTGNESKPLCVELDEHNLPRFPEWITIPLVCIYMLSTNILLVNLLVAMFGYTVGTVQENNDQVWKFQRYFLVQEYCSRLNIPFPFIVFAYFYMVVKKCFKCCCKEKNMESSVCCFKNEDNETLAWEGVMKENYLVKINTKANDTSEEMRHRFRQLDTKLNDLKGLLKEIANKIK

Row | EC50 [nM] | Structure (SMILES)
1 | < 50 | CSC(C)C(=O)N1CCCCC1c1ncc(-c2ccc(C)cc2)o1 (centres unmarked) [Compound 133, 2-(methylthio)-1-(2-(5-(p-tolyl)oxazol-2-yl)piperidin-1-yl)propan-1-one]
2 | < 50 | CCC(C)C(=O)N1CCCCC1c1ncc(-c2ccc(C)s2)[nH]1 (centres unmarked) [Compound 205, 2-methyl-1-(2-(5-(5-methylthiophen-2-yl)-1H-imidazol-2-yl)piperidin-1-yl)butan-1-one]
3 | < 50 | CSC(C)C(=O)N1CCCCC1c1ncc(-c2ccc(OC(F)(F)F)cc2)[nH]1 (centres unmarked) [Compound 123, 2-(methylthio)-1-(2-(5-(4-(trifluoromethoxy)phenyl)-1H-imidazol-2-yl)piperidin-1-yl)propan-1-one]
4 | 50 to 300 | CSC(C)C(=O)N1CCCCC1c1nnc(-c2ccccc2)[nH]1 (centres unmarked) [Compound 137, 2-(methylthio)-1-(2-(5-phenyl-4H-1,2,4-triazol-3-yl)piperidin-1-yl)propan-1-one]
5 | 300 to 1000 | Cc1ccc(-c2cnc(C3CCCCN3S(=O)(=O)C(C)C)[nH]2)cc1 (centres unmarked) [Compound 203, 1-(isopropylsulfonyl)-2-(5-(p-tolyl)-1H-imidazol-2-yl)piperidine]
6 | < 50 | CSC(C)C(=O)N1CCCCC1c1ncc(-c2ccc(N)cc2)[nH]1 (centres unmarked) [Compound 75, 1-(2-(5-(4-aminophenyl)-1H-imidazol-2-yl)piperidin-1-yl)-2-(methylthio)propan-1-one]
7 | 300 to 1000 | CSC(C)C(=O)N1CCCCC1c1nc(-c2cnn(C)c2)c[nH]1 (centres unmarked) [Compound 16, 1-(2-(4-(1-methyl-1H-pyrazol-4-yl)-1H-imidazol-2-yl)piperidin-1-yl)-2-(methylthio)propan-1-one]
8 | 50 to 300 | CC(=O)C(C)C(=O)N1CCCCC1c1ncc(-c2ccc(C)cc2)[nH]1 (centres unmarked) [Compound 167, 2-methyl-1-(2-(5-(p-toly)-1H-imidazol-2-yl)piperidin-1-yl)butane-1,3-dione]
9 | 1000 to 35000 | CNCc1ccc(-c2cnc(C3CCCCN3C(=O)C(C)SC)[nH]2)cc1 (centres unmarked) [Compound 69, 1-(2-(5-(4-((methylamino)methyl)phenyl)-1H-imidazol-2-yl)piperidin-1-yl)-2-(methylthio)propan-1-one]
10 | 1000 to 35000 | CSC(C)C(=O)N1CCCCC1c1ncc(Cc2ccccc2)[nH]1 (centres unmarked) [Compound 87, 1-(2-(5-benzyl-1H-imidazol-2-yl)piperidin-1-yl)-2-(methylthio)propan-1-one]
11 | 50 to 300 | CC1CC1C(=O)N1CCCCC1c1nc(-c2ccccc2)c[nH]1 (centres unmarked) [Compound 6, (2-methylcyclopropyl)(2-(4-phenyl-1H-imidazol-2-yl)piperidin-1-yl)methanone]
12 | < 50 | C=C(CC)C(=O)N1CCCCC1c1ncc(-c2ccc(C)cc2)[nH]1 (centres unmarked) [Compound 173, 2-methylene-1-(2-(5-(p-toly)-1H-imidazol-2-yl)piperidin-1-yl)butan-1-one]
13 | < 50 | Cc1ccc(-c2cnc(C3CCCCN3C(=O)C(C)C)[nH]2)cc1 (centres unmarked) [Compound 170, 2-methyl-1-(2-(5-(p-tolyl)-1H-imidazol-2-yl)piperidin-1-yl)propan-1-one]
14 | 1000 to 35000 | CSC(C)C(=O)N1CCCCC1c1nc(-c2ccc(CN3CCOCC3)cc2)c[nH]1 (centres unmarked) [Compound 107, 2-(methylthio)-1-(2-(4-(4-(morpholinomethyl)phenyl)-1H-imidazol-2-yl)piperidin-1-yl)propan-1-one]
15 | 1000 to 35000 | CCC(C(=O)N1CCCCC1c1nc(-c2ccccc2)c[nH]1)N(C)C (centres unmarked) [Compound 93, 2-(dimethylamino)-1-(2-(4-phenyl-1H-imidazol-2-yl)piperidin-1-yl)butan-1-one]
16 | 1000 to 35000 | O=C(Cc1ccco1)N1CCCCC1c1nc(-c2ccccc2)c[nH]1 (centres unmarked) [Compound 96, 2-(furan-2-yl)-1-(2-(4-phenyl-1H-imidazol-2-yl)piperidin-1-yl)ethan-1-one]
17 | < 50 | CSC(C)C(=O)N1CCCCC1c1nc(-c2ccc(C(F)(F)F)o2)c[nH]1 (centres unmarked) [Compound 108, 2-(methylthio)-1-(2-(4-(5-(trifluoromethyl)furan-2-yl)-1H-imidazol-2-yl)piperidin-1-yl)propan-1-one]
